Test results published in US10925885B2, “Thyromimetics for the treatment of fatty liver diseases” (Metabasis Therapeutics, Inc., priority 2005, dated 2021).
Entries after “also recorded” stand apart in the source; their conditions may differ.

Tests used:
liver triglycerides [1] = assay: Liver triglycerides, chronic exposure in normal rats; format: in vivo, rats (Sprague-Dawley); conditions: 1 mg/kg/day continuous infusion; for Triglycerides (mg/g liver): normal Sprague-Dawley rats, subcutaneous osmotic pump, one week; for Effect on liver (hepatic) triglyceride content, in words: normal rats, systemic administration
Text: The purpose of these studies was to compare the difference in efficacy to clear liver triglyceride content between T3 and various T3 mimetics that are carboxylic acids and T3 mimetics that are phosphonic acids. In one example, T3 and Compounds 7 and 17, which differ only in that for Compound 7, the X moiety of Formula II is —P(O)OH2 and for Compound 17, X is —C(O)OH, were compared. In the same example TRIAC and Compound 6, which differ only in that for Compound 6, X is —P(O)OH2 and for TRIAC, X is —C(O)OH, were compared. Efficacy was measured by analyzing total liver triglycerides.
(§1) Methods: Normal rats (Sprague-Dawley) were maintained on a standard diet. Compounds 7, 17, 6, TRIAC or T3 were administered by continuous infusion using an osmotic pump (Alzet; subcutaneous implant) at a dose of 1 mg/kg/day. The compounds were dissolved in 0.1N NaOH solution and the pH adjusted to 7.4-8.0. The compounds were brought up to an appropriate volume using PBS and BSA to maintain solubility within the pump. The compounds were chemically stable in the excipient at 37° C. for 7 days. Body weights were measured and the change from the starting body weight was calculated. The 4.5% reported for the vehicle animals represent a 4.5% increase in body weight over the course of the experiment.
(§2) Sections of liver were removed and frozen. Liver triglycerides were analyzed following lipid extraction by the Bligh Dyer method (Bligh and Dyer, Can. J. Med. Sci. 37(8):911-7 (1959), incorporated herein by reference). Total triglycerides were analyzed in the liver extracts by an enzymatic assay (Thermo Electron Corporation). Total lipid was normalized to initial liver weight and triglyceride content was normalized to liver weight mGPDH activity was analyzed in isolated mitochondria using 2-(4-iodophenyl)-3-(4-nitrophenyl)-5-phenyl tetrazolium chloride as the terminal electron acceptor (Gardner R S, Analytical Biochemistry 59:272 (1974)). Commercially available GPDH was used in each assay as a standard (Sigma, St. Louis, Mo.).

[2] = Body weight change, chronic exposure in normal rats; format: in vivo, rats (Sprague-Dawley); conditions: 1 mg/kg/day continuous infusion; for Body Weight (% change from start): normal Sprague-Dawley rats, subcutaneous osmotic pump, one week; for Effect on body weight, in words: normal rats
Description: as §1

mGPDH = assay: Liver mGPDH activity in isolated mitochondria, normal rats; format: in vivo; conditions: normal Sprague-Dawley rats, 1 mg/kg/day continuous infusion, subcutaneous osmotic pump
Description: as §1, §2

liver triglycerides [3] = assay: Liver triglycerides, chronic exposure in ob/ob mice; format: in vivo
Description: as §2
The purpose of these studies was to compare the difference in efficacy to clear liver triglyceride content between Compound cis-13-1 and T3 in ob/ob mice.
(§3) Methods: ob/ob mice were maintained on a standard diet. Compound cis-13-1 was administered at doses of 3, 10 and 30 mg/kg/d orally in a CMC suspension. T3, 100 nmole/kg/d, was administered as an aqueous solution subcutaneously. Liver triglycerides were analyzed as described in example A. Epididymal fat pads were removed and weighed. Clinical chemistry analysis was performed by LabCorp (San Diego, Calif.).

[4] = Epididymal fat pad weight in ob/ob mice; format: in vivo
Description: as §3

hepatic steatosis [5] = assay: Hepatic steatosis measured chemically and histologically in ob/ob mice; format: in vivo; conditions: oral administration of cis-13-1
Description: as §3

[6] = tested on: thyroid-responsive genes in the liver; conditions: T3-treated vs hypothyroid mice; cited from earlier work
hepatic steatosis [7] = assay: Liver steatosis (H&E sections) in ZDF rats; format: in vivo, Zucker diabetic fatty (ZDF) rats; conditions: oral, CMC suspension
Description: Methods: ZDF rats were maintained on a standard diet (5008). Compounds cis-13-1 or 18 were administered orally at the indicated doses using a CMC suspension. Liver steatosis was analyzed visually following H&E staining of paraffin embedded liver sections. TSH was measured using a rodent specific kit (Amersham Biosciences). At the end of the experiment, the left ventricle was cannulated with a high fidelity catheter-tip transducer (Millar) via the right carotid artery. Left ventricle pressure, its first derivative (LV dP/dt), lead I ECG, and heart rate triggered off the ECG waveform, were recorded.

liver TG = conditions: thyroxine treatment, cited from earlier work
[8] = T3 100 nmole/kg/d subcutaneously

3,3′,5′-triiodothyronine [Compound T3]
Triglycerides (mg/g liver) (liver triglycerides [1]): 3.6 ± 0.6 mg/g liver
Effect on liver (hepatic) triglyceride content, in words (liver triglycerides [1]; 1 mg/kg/day): did not demonstrate a decrease in hepatic triglyceride content; also recorded: did not significantly decrease liver triglyceride content
Body Weight (% change from start) [2]: −8.2 ± 1.5 % change from start
Effect on body weight, in words ([2]; 1 mg/kg/day): decreased body weight; also recorded: loss of body weight
Liver mGPDH activity (% vehicle) (mGPDH): 406 ± 54 % vehicle
Liver Trigs (liver triglycerides [3]; [8]): 86 ± 5 mg/g
Effect on liver (hepatic) triglyceride content, in words (liver triglycerides [3]; cis-13-1 oral 3, 10, 30 mg/kg/d, T3 100 nmole/kg/d s.c.): did not significantly decrease liver triglyceride content
EFP weight [4, 8]: 2.0 ± 0.1 g
Effect on epididymal fat pad (EFP) weight, in words ([4]; cis-13-1 oral, T3 100 nmole/kg/d s.c.): significantly decreased EFP weight; also recorded: significantly decreased epididymal fat pad weight
Effect on hepatic steatosis measured chemically and histologically, in words (hepatic steatosis [5]): no significant effect on hepatic steatosis
Fold, AM2 receptor [6]: 0.3 Fold
Fold, Actin, α cardiac [6]: 0.3 Fold
Fold, Actin, γ-enteric smooth muscle [6]: 0.3 Fold
Fold, Arylsulfatase A [6]: 0.3 Fold
Fold, B61 [6]: 2.3 Fold
Fold, Bcl-3 [6]: 2.5 Fold
Fold, C11 protein [6]: 0.3 Fold
Fold, Capping protein a-subunit [6]: 0.3 Fold
Fold, Carbonyl reductase (Cbr1) [6]: 3.3 Fold
Fold, Chromodomain-helicase-DNA binding protein CHD-1 [6]: 0.4 Fold
Fold, Cyp4a-10 [6]: 0.3 Fold
Fold, Cytoskeletal β-actin [6]: 0.3 Fold
Fold, EST [6]: 0.4 Fold
Fold, FK506-binding protein (FKBP23) [6]: 0.2 Fold
Fold, FK506-binding protein (FKBP65) [6]: 0.3 Fold
Fold, Fatty acid transport protein (FATP) [6]: 1.8 Fold
Fold, Glucose regulated protein 78 [6]: 0.3 Fold
Fold, Glucose-6-phosphatase [6]: 3.8 Fold
Fold, Glycerophosphate dehydrogenase [6]: 0.3 Fold
Fold, H-2 class I histocompatibility antigen [6]: 0.3 Fold
Fold, Inhibitory G protein of adenylate cyclase, α chain [6]: 0.3 Fold
Fold, Insulin-like growth factor binding protein 1 precursor [6]: 3.0 Fold
Fold, Kinesin-like protein (KipIp) [6]: 2.0 Fold
Fold, Lamin A [6]: 0.3 Fold
Fold, Lupus la protein homolog [6]: 0.3 Fold
Fold, Major urinary protein 2 precursor [6]: 3.9 Fold
Fold, Membrane-type matrix metalloproteinase [6]: 0.2 Fold
Fold, Mitochondrial genome [6]: 0.4 Fold
Fold, Murine vik5variant in the kinase [6]: 0.1 Fold
Fold, Myosin binding protein H (MyBP-H) [6]: 2.2 Fold
Fold, NfiB1-protein (exon 1-12) [6]: 0.3 Fold
Fold, Nuclear-encoded mitochondrial acyltransferase [6]: 0.2 Fold
Fold, PHAS-II [6]: 0.3 Fold
Fold, Protein kinase C inhibitor (mPKCl) [6]: 2.1 Fold
Fold, Protein kinase C, Θ type [6]: 0.3 Fold
Fold, Protein kinase ζ [6]: 0.5 Fold
Fold, Putative ATP-dependent RNA helicase PL10 [6]: 0.3 Fold
Fold, Putative SH3-containing protein SH3P12 [6]: 0.3 Fold
Fold, Putative transcription factor of the insulin gene [6]: 0.3 Fold
Fold, Rho-associated, coiled-coil forming protein kinase p160 [6]: 0.2 Fold
Fold, Serine/threonine kinase (Akt2) [6]: 0.3 Fold
Fold, Skeletal muscle actin [6]: 0.3 Fold
Fold, Spot 14 gene [6]: 8.8 Fold
Fold, T-complex protein 1, d subunit [6]: 0.3 Fold
Fold, TGN38B [6]: 0.3 Fold
Fold, Terminal deoxynucleotidyltransferase [6]: 0.3 Fold
Fold, Thymic stromal stimulating factor [6]: 0.3 Fold
Fold, Ubiquitin-activating enzyme E1 X [6]: 0.3 Fold
Fold, Virus-like (VL30) retrotransposon BVL-1 [6]: 0.3 Fold
Fold, ece1 (endothelin-converting enzyme) [6]: 0.2 Fold
Fold, α-2,3-Sialyltransferase [6]: 0.3 Fold
Fold, α-Adaptin [6]: 0.3 Fold
Fold, α-Globin [6]: 2.7 Fold
Fold, β-2 Adrenergic receptor [6]: 3.4 Fold
Fold, β-Galactoside α 2,6-sialyltransferase [6]: 0.3 Fold
Fold, β-Globin [6]: 2.3 Fold

O=P(O)(O)Cc1cc(I)c(Oc2ccc(O)c(I)c2)c(I)c1 [Compound 6]
Triglycerides (mg/g liver) (liver triglycerides [1]): 1.3 ± 0.2 mg/g liver
Effect on liver (hepatic) triglyceride content, in words (liver triglycerides [1]): significant decrease in hepatic triglyceride content
Body Weight (% change from start) [2]: 8.7 ± 0.8 % change from start
Effect on body weight, in words [2]: did not decrease body weight
Liver mGPDH activity (% vehicle) (mGPDH): 291 ± 37 % vehicle

Cc1cc(OCP(=O)(O)O)cc(C)c1Cc1ccc(O)c(C(C)C)c1 [Compound 7]
Triglycerides (mg/g liver) (liver triglycerides [1]): 1.3 ± 0.4 mg/g liver
Effect on liver (hepatic) triglyceride content, in words (liver triglycerides [1]): significant decrease in hepatic triglyceride content
Body Weight (% change from start) [2]: 9.1 ± 1.5 % change from start
Effect on body weight, in words [2]: did not decrease body weight
Liver mGPDH activity (% vehicle) (mGPDH): 399 ± 40 % vehicle

Cc1cc(OCC(=O)O)cc(C)c1Cc1ccc(O)c(C(C)C)c1 [Compound 17]
Triglycerides (mg/g liver) (liver triglycerides [1]): 1.8 ± 0.3 mg/g liver
Effect on liver (hepatic) triglyceride content, in words (liver triglycerides [1]): significant decrease in hepatic triglyceride content
Body Weight (% change from start) [2]: −5.4 ± 1.0 % change from start
Effect on body weight, in words ([2]; 1 mg/kg/day): decreased body weight
Effect on body weight, in words ([2]; listed as compound 17, 1 mg/kg/day): loss of body weight
Liver mGPDH activity (% vehicle) (mGPDH): 426 ± 45 % vehicle

CC(C)c1cc(Oc2c(Cl)cc(CC(=O)O)cc2Cl)ccc1O [Compound 18]
Effect on hepatic steatosis (visual, H&E), in words (hepatic steatosis [7]): visually decreased hepatic steatosis compared to control

O=C(O)Cc1cc(I)c(Oc2ccc(O)c(I)c2)c(I)c1 [TRIAC]
Triglycerides (mg/g liver) (liver triglycerides [1]): 1.5 ± 0.4 mg/g liver
Effect on liver (hepatic) triglyceride content, in words (liver triglycerides [1]): significant decrease in hepatic triglyceride content
Body Weight (% change from start) [2]: −1.7 ± 0.6 % change from start
Effect on body weight, in words ([2]; 1 mg/kg/day): decreased body weight; also recorded: loss of body weight
Liver mGPDH activity (% vehicle) (mGPDH): 384 ± 28 % vehicle

N[C@@H](Cc1cc(I)c(Oc2cc(I)c(O)c(I)c2)c(I)c1)C(=O)O [thyroxine, 3,3′,5,5′-tetraiodothyronine]
Decrease of liver TG (liver TG; after one week): 5 fold
Rebound of liver TG (liver TG; by the end of five weeks): 4 fold
